Test system: 5-Lipoxygenase
Assay: ARBL whole cell 5-lipoxygenase assay (inhibition of LTB4 formation in RBL-1 cells, RIA)
Type: cell-based, rat
Conditions: calcium ionophore A23187 (5 μM)
Excerpt: ARBL/ARBC Whole Cell 5-Lipoxygenase and Cyclcoxygenase Assays
Cells are harvested by centrifugation.

Question: With `FC(F)(F)c1cccc(Nc2ccccc2-c2n[nH]c(=S)[nH]2)c1` [Example 4, 5-[2-[(3-trifluoromethylphenyl)amino]phenyl]-2,4-dihydro-3H-1,2,4-triazole-3-thione] as the compound, how does the “ARBL: % inhibition of LTB4 at 16 μM” value read?
Answer: N (Less than 40% inhibiton)

From US4962119A, “Triazole derivatives of fenamates as antiinflammatory agents” (Warner-Lambert Company, priority 1989, dated 1990)
